From US8859549B2, “Potassium channel modulators” (AbbVie, Inc., priority 2011, dated 2014)

Biological target: T1, KCNQ 2/3 channels (Homo sapiens, UniProt O43525+O43526)
T1 construct: expressed in transfected cells; host or cells: HEK293
Assay: KCNQ 2/3 channel activation, thallium flux FLIPR assay (BTC-AM dye)
Type: cell-based
Details: for Emax: HEK293, maximum response relative to the response of 10 μM retigabine (set at 100%), HEK293 KCNQ2/KCNQ3 cells, read-out: % MAX; for EC50: HEK293 cells stably expressing human KCNQ2 and KCNQ3 subunits, thallium-induced fluorescence, 4 min compound incubation
Summary of the method: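 HEK293 cells stably expressing human KCNQ2/KCNQ3 were loaded with BTC-AM (3 μg/mL, 2 h, RT) and preincubated with compound for 4 min in pH 7.3 gluconate buffer containing 0.1 mM ouabain. Flux was triggered by 6 mM TlNO3/10 mM K2SO4 and read for 3 min; EC50 came from summed responses over basal, with maximum relative to 10 μM retigabine (100%).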

Structure (SMILES) | Emax [%] | EC50 [nM]
O=C(Cc1ccc(Cl)cc1)Nn1nc(Sc2ccc(Br)cc2)c2ccccc2c1=O [Example 195, N-{4-[(4-bromophenyl)sulfanyl]-1-oxophthalazin-2(1H)-yl}-2-(4-chlorophenyl)acetamide] | 96.9 | 432
O=C(Cc1ccc(Cl)cc1)Nn1nc(Cc2ccc(Cl)[n+]([O-])c2)c2ccccc2c1=O [Example 104, N-{4-[(6-chloro-1-oxidopyridin-3-yl)methyl]-1-oxophthalazin-2(1H)-yl}-2-(4-chlorophenyl)acetamide] | 11.7 | 
CC(C)(C)OC(=O)Nc1ccc(Sc2nn(NC(=O)Cc3ccc(Cl)cc3)c(=O)c3ccccc23)cc1 [Example 103, tert-butyl{4-[(3-{[(4-chlorophenyl)acetyl]amino}-4-oxo-3,4-dihydrophthalazin-1-yl)sulfanyl]phenyl}carbamate] | 76 | 
CC(C)(C)OC(=O)NCc1nn(NC(=O)CC2CC3CCC2C3)c(=O)c2ccccc12 (racemic) [Example 44, (±)-tert-butyl[(3-{[(exo)-bicyclo[2.2.1]hept-2-ylacetyl]amino}-4-oxo-3,4-dihydrophthalazin-1-yl)methyl]carbamate] | 116 | 294
Cc1ccsc1-c1nn(NC(=O)CC2CC3CCC2C3)c(=O)c2ccccc12 (racemic) [Example 16, (±)-2-[(exo)-bicyclo[2.2.1]hept-2-yl]-N-[4-(3-methylthiophen-2-yl)-1-oxophthalazin-2(1H)-yl]acetamide] | 140 | 116
O=C(CC1(O)CCCCC1)Nn1nc(-c2ccnc(Cl)c2)c2ccccc2c1=O [Example 71, N-[4-(2-chloropyridin-4-yl)-1-oxophthalazin-2(1H)-yl]-2-(1-hydroxycyclohexyl)acetamide] | 34 | 
COc1cccc(CC(=O)Nn2nc(S(=O)(=O)c3ccccc3)c3ccccc3c2=O)c1 [Example 205, 2-(3-methoxyphenyl)-N-[1-oxo-4-(phenylsulfonyl)phthalazin-2(1H)-yl]acetamide] | 71.8 | 938
Cc1cc(-c2nn(NC(=O)CC3CC4CCC3C4)c(=O)c3ccccc23)ccn1 (racemic) [Example 50, (±)-2-[(exo)-bicyclo[2.2.1]hept-2-yl]-N-[4-(2-methylpyridin-4-yl)-1-oxophthalazin-2(1H)-yl]acetamide] | 151 | 1130
O=C(Cc1cc(F)cc(F)c1)Nn1nc(S(=O)(=O)Cc2ccccc2)c2ccccc2c1=O [Example 215, N-[4-(benzylsulfonyl)-1-oxophthalazin-2(1H)-yl]-2-(3,5-difluorophenyl)acetamide] | 45 | 916
CC(C)(C)OC(=O)NCc1nn(NC(=O)Cc2ccc(F)cc2)c(=O)c2ccccc12 [Example 125, tert-butyl[(3-{[(4-fluorophenyl)acetyl]amino}-4-oxo-3,4-dihydrophthalazin-1-yl)methyl]carbamate] | 93.1 | 9900
Cc1ccsc1-c1nn(NC(=O)Cc2cc(F)cc(F)c2)c(=O)c2ccccc12 [Example 14, 2-(3,5-difluorophenyl)-N-[4-(3-methylthiophen-2-yl)-1-oxophthalazin-2(1H)-yl]acetamide] | 146 | 296
CCOC(=O)c1nn(NC(=O)CC2CC3CCC2C3)c(=O)c2ccccc12 (racemic) [Example 51, (±)-ethyl 3-{[(exo)-bicyclo[2.2.1]hept-2-ylacetyl]amino}-4-oxo-3,4-dihydrophthalazine-1-carboxylate] | 171 | 275
O=C(Cc1ccc(-c2ccccc2)cc1)Nn1nc(N2CCOCC2)c2ccccc2c1=O [Example 158, 2-(biphenyl-4-yl)-N-[4-(morpholin-4-yl)-1-oxophthalazin-2(1H)-yl]acetamide] | 6.84 | 
O=C(Cc1ccc(Cl)cc1)Nn1nc(S(=O)(=O)c2cc[n+]([O-])cc2)c2ccccc2c1=O [Example 196, 2-(4-chlorophenyl)-N-{4-[(1-oxidopyridin-4-yl)sulfonyl]-1-oxophthalazin-2(1H)-yl}acetamide] | 16.6 | 
